# According to ChEMBL document CHEMBL3286231, “Synthesis and biological effects of new hybrid compounds composed of benzylguanidines and the alkylating group of busulfan on neuroblastoma cells” (Bioorg Med Chem Lett, 2014):
# Active and inactive are the calls of the source. No cut-off for these calls is given here.
# Legend:
# LS [1] = experiment: Antiproliferative activity against human LS cells at 10 to 100 uM after 72 hrs by MTT assay; format: functional, cell-based
# Kelly [2] = experiment: Antiproliferative activity against human Kelly cells at 10 to 100 uM after 72 hrs by MTT assay; format: functional, cell-based
# Kelly [3] = experiment: (§1) Increase in glycolysis in human Kelly cells assessed as conversion of glucose to lactate at 100 uM after 12 hrs relative to untreated control; format: functional
# SIMA [4] = experiment: Antiproliferative activity against human SiMa cells at 10 to 100 uM after 72 hrs by MTT assay; format: functional, cell-based
# LS [5] = experiment: (§2) Increase in glycolysis in human LS cells assessed as conversion of glucose to lactate at 100 uM after 12 hrs relative to untreated control; format: functional
# SK-N-SH [6] = experiment: Antiproliferative activity against human SK-N-SH cells at 10 to 100 uM after 72 hrs by MTT assay; format: functional, cell-based
# SIMA [7] = experiment: Increase in glycolysis in human SiMa cells assessed as conversion of glucose to lactate at 100 uM after 12 hrs relative to untreated control; format: functional
# SIMA [8] = experiment: Antiproliferative activity against human SiMa cells after 72 hrs by MTT assay; format: functional, cell-based
# Kelly [9] = experiment: Antiproliferative activity against human Kelly cells after 72 hrs by MTT assay; format: functional, cell-based
# LS [10] = experiment: Antiproliferative activity against human LS cells after 72 hrs by MTT assay; format: functional, cell-based
# SK-N-SH [11] = experiment: Antiproliferative activity against human SK-N-SH cells after 72 hrs by MTT assay; format: functional, cell-based
# [12] = as §1; format: functional
# [13] = as §2; format: functional
Structure (SMILES),Activity (LS [1]),Activity (Kelly [2]),Activity (Kelly [3]),Activity (SIMA [4]),Activity (LS [5]),Activity (SK-N-SH [6]),Activity (SIMA [7]),Activity (SIMA [8]),Activity (Kelly [9]),Activity (LS [10]),Activity (SK-N-SH [11]),Activity [12] [%],Activity [13] [%]
CS(=O)(=O)OCCCCOS(C)(=O)=O,Active,Active,inactive,Active,inactive,Active,inactive,–,–,–,–,–,–
CS(=O)(=O)OCCCCOc1ccc(CNC(=N)N)cc1,–,–,Active,–,Active,–,Active,Dose-dependent effect,Dose-dependent effect,Dose-dependent effect,Dose-dependent effect,–,–
CS(=O)(=O)OCCCCOc1cccc(CNC(=N)N)c1,–,–,Active,–,Active,–,Active,Dose-dependent effect,Dose-dependent effect,Dose-dependent effect,Dose-dependent effect,–,–
N=C(N)NCc1cccc(I)c1 [IOBENGUANE],Active,Active,–,Active,–,Active,98%,–,–,–,–,74,81
